Patent publication US20230295152A1 (SENDA BIOSCIENCES, INC., priority 2019, published 2023)

target: T1, AHR (Homo sapiens, UniProt P35869); experiment: DRE-Luciferase Reporter Assay, HepG2 AhR-Lucia reporter cells; format: cell-based; settings: with AHR activating ligand at EC50, read-out: HepG2-Luc IC50
T1 construct: other cell line with a DRE-luciferase reporter stably transfected; endogenous in cells; host or cells: HepG2 AhR-Lucia reporter cells
T1 sequence (P35869 11-848): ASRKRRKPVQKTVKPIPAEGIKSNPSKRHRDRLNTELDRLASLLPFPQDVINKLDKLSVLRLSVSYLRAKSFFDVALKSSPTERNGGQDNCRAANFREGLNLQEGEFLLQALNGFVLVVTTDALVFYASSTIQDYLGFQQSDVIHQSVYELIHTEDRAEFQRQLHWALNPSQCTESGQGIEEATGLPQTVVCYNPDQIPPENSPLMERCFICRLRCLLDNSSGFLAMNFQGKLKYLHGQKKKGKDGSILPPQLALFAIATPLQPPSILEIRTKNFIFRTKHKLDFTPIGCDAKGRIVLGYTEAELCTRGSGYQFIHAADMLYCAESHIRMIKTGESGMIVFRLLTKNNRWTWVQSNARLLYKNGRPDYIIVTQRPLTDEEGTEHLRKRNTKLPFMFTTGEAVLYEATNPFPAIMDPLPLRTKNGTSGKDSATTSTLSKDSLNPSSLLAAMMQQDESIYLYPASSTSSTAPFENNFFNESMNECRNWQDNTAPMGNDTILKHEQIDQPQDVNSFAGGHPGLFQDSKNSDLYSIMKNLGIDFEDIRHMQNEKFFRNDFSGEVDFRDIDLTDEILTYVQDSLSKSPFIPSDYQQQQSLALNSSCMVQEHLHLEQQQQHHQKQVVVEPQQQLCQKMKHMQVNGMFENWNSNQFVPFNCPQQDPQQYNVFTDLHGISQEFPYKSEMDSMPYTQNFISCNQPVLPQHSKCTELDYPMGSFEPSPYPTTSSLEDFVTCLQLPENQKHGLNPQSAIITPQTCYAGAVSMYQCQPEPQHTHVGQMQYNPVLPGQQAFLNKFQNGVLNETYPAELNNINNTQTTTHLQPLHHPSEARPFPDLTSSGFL
From the text: AHR binds to Dioxin Responsive Elements (DRE) upstream of genes that it activates. One measure of AHR activity is activation of a reporter gene, such as luciferase, downstream of one or multiple DRE elements. Luciferase activity will reflect activation and inhibition of AHR in the cells expressing his reporter. 20000 Human HepG2 liver carcinoma—AhR-Lucia reporter cells or Human HT29 colon adenocarcinoma—AhR reporter cells or other cell line with a DRE-luciferase reporter stably transfected were plated in Eagle's Minimal Essential Medium, 10% heat-inactivated FBS, 1× non-essential amino acids Pen-Strep (10,000 U/mL) and Normocin (100 ug/mL) in plates (96-well, 384-well or other plates) and incubated overnight at 37° C. in a CO2 incubator and treated with and without AhR antagonists at a log dilution starting at 100 uM.
After 1 hr that cells were plated an AHR activating ligand, such as TCDD, kynurenine, ITE (2-(1H-indole-3-ylcarbonyl)-4-thiazolecarboxylic methyl ester), VAF347, BNF (beta-naphthoflavone), FICZ (6-formylindolo(3,2-b) carbazole) or other AHR ligands at their specific EC50 concentration, were added to the cells with or without AHR antagonist.
Cells were incubated for 24 or 48 hours or another time point and then, supernatant was analyzed for determination of luciferase activity as a read-out of the AHR activation or inhibition. Luciferase was measured with the commercial kit QUANTI-Luc™ assay solution kit from Invivogen following the manufacturer's instructions.
The level of luciferase with only agonist ligand added was the maximum signal while the luciferase with […] was the minimum signal. IC50 values were determined as the concentration which inhibits half of the luciferase activity.

Row | IC50 [nM] | SMILES
1 | 100 to 500 | C[C@@H](CO)n1cnc2c(-c3ccc(C(F)(F)F)nc3)nc(-c3ccc(C(F)(F)F)nc3)cc2c1=O [Compound 69]
2 | < 100 | CC(C)[C@@H](CO)n1cnc2c(-c3cc(F)cc(F)c3)nc(-c3cc(F)cc(F)c3)cc2c1=O [Compound 35]
3 | < 100 | C[C@@H](CO)n1cnc2c(-c3cn[nH]c3)nc(-c3ccc(C(F)(F)F)cn3)cc2c1=O [Compound 191, (S)-3-(1-hydroxypropan-2-yl)-8-(1H-pyrazol-4-yl)-6-(5-(trifluoromethyl)pyridin-2-yl)pyrido[3,4-d]pyrimidin-4(3H)-one]
4 | < 100 | C[C@@H](n1cnc2c(-c3cccc(F)c3)nc(-c3ccc(Cl)cc3)cc2c1=O)C(C)(C)O [Compound 39]
5 | 100 to 500 | C[C@@H](C(=O)N[C@@H]1COC[C@H]1O)n1cnc2c(-c3cccnc3)nc(-c3ccc(C(F)(F)F)nc3)cc2c1=O [Compound 158, (S)—N-((3R,4S)-4-hydroxytetrahydrofuran-3-yl)-2-(4-oxo-8-(pyridin-3-yl)-6-(6-(trifluoromethyl)pyridin-3-yl)pyrido[3,4-d]pyrimidin-3(4H)-yl)propenamide]
6 | < 100 | CC(C)(O)Cn1cnc2c(-c3cn[nH]c3)nc(-c3ccc(C(F)(F)F)cn3)cc2c1=O [Compound 159, 3-(2-hydroxy-2-methylpropyl)-8-(1H-pyrazol-4-yl)-6-(5-(trifluoromethyl)pyridin-2-yl)pyrido[3,4-d]pyrimidin-4(3H)-one]
7 | < 100 | O=c1c2cc(-c3ccc(OC(F)(F)F)cc3)nc(-c3cccnc3)c2ncn1CCO [Compound 72]
8 | < 100 | O=c1c2cc(-c3ccc(C(F)(F)F)nc3)nc(-c3cccnc3)c2ncn1C1CCCC1 [Compound 132, 3-cyclopentyl-8-(pyridin-3-yl)-6-(6-(trifluoromethyl)pyridin-3-yl)pyrido[3,4-d]pyrimidin-4(3H)-one]
9 | < 100 | Cn1cc(-c2nc(-c3ccc(C(F)(F)F)cn3)cc3c(=O)n([C@H]4COC[C@@H]4O)cnc23)cn1 [Compound 137, 3-((3S,4R)-4-hydroxytetrahydrofuran-3-yl)-8-(1-methyl-1H-pyrazol-4-yl)-6-(5-(trifluoromethyl)pyridin-2-yl)pyrido[3,4-d]pyrimidin-4(3H)-one]
10 | < 100 | CC(C)(O)Cn1cnc2c(-c3cccnc3)nc(-c3cnc(C(F)(F)F)nc3)cc2c1=O [Compound 96]
11 | < 100 | O=c1c2cc(-c3ccc(Cl)cc3)nc(-c3cccnc3)c2ncn1CC(O)C(F)(F)F (centres unmarked) [Compound 13]
12 | < 100 | C[C@@H](CO)n1cnc2c(N3CCOCC3)nc(-c3ccc(C(F)(F)F)nc3)cc2c1=O [Compound 178, (S)-3-(1-hydroxypropan-2-yl)-8-morpholino-6-(6-(trifluoromethyl)pyridin-3-yl)pyrido[3,4-d]pyrimidin-4(3H)-one]
13 | < 100 | Cn1cc(-c2nc(-c3ccc(C(F)(F)F)cn3)cc3c(=O)n([C@@H]4COC[C@@H]4O)cnc23)cn1 [Compound 149, 3-((3R,4R)-4-hydroxytetrahydrofuran-3-yl)-8-(1-methyl-1H-pyrazol-4-yl)-6-(5-(trifluoromethyl)pyridin-2-yl)pyrido[3,4-d]pyrimidin-4(3H)-one]
14 | > 500 | Cc1cnc(-c2cc3c(=O)n([C@@H](C)CO)cnc3c(-c3cccnc3)n2)nc1 [Compound 187, (S)-3-(1-hydroxypropan-2-yl)-6-(5-methylpyrimidin-2-yl)-8-(pyridin-3-yl)pyrido[3,4-d]pyrimidin-4(3H)-one]
15 | > 500 | Cc1ccncc1-c1nc(-c2ccc(C(F)(F)F)nc2)cc2c(=O)n([C@@H](C)CO)cnc12 [Compound 64]
16 | 100 to 500 | C[C@@H](CO)n1cnc2c(-c3cnn(C)c3)nc(-c3cccnc3)cc2c1=O [Compound 76]

Row | IC50 [nM] | SMILES
17 | > 500 | COCCc1cc2c(=O)n([C@@H](C)CO)cnc2c(-c2cccnc2)n1 [Compound 192, (S)-3-(1-hydroxypropan-2-yl)-6-(2-methoxyethyl)-8-(pyridin-3-yl)pyrido[3,4-d]pyrimidin-4(3H)-one]
18 | 100 to 500 | O=c1c2cc(-c3cnc(C(F)(F)F)s3)nc(-c3cccnc3)c2ncn1[C@@H]1COC[C@H]1O [Compound 173, 3-((3R,4S)-4-hydroxytetrahydrofuran-3-yl)-8-(pyridin-3-yl)-6-(2-(trifluoromethyl)thiazol-5-yl)pyrido[3,4-d]pyrimidin-4(3H)-one]
19 | 100 to 500 | C[C@@H](CO)n1cnc2c(-n3cccn3)nc(-c3ccc(C(F)(F)F)cn3)cc2c1=O [Compound 167, (S)-3-(1-hydroxypropan-2-yl)-8-(1H-pyrazol-1-yl)-6-(5-(trifluoromethyl)pyridin-2-yl)pyrido[3,4-d]pyrimidin-4(3H)-one]
20 | < 100 | C[C@@H](O)Cn1cnc2c(-c3cnn(C)c3)nc(-c3ccc(C(F)(F)F)cn3)cc2c1=O [Compound 141, (R)-3-(2-hydroxypropyl)-8-(1-methyl-1H-pyrazol-4-yl)-6-(5-(trifluoromethyl)pyridin-2-yl)pyrido[3,4-d]pyrimidin-4(3H)-one]
21 | < 100 | C[C@@H](CO)n1cnc2c(-n3cccn3)nc(-c3ccc(C(F)(F)F)nc3)cc2c1=O [Compound 165, (S)-3-(1-hydroxypropan-2-yl)-8-(1H-pyrazol-1-yl)-6-(6-(trifluoromethyl)pyridin-3-yl)pyrido[3,4-d]pyrimidin-4(3H)-one]
22 | < 100 | O=c1[nH]cnc2c(-c3cccnc3)nc(-c3ccc(C(F)(F)F)nc3)cc12 [Compound 119, 8-(pyridin-3-y1)-6-(6-(trifluoromethyl)pyridin-3-yl)pyrido[3,4-d]pyrimidin-4(3H)-one]
23 | < 100 | Cn1cc(-c2nc(-c3ccc(Cl)cc3)cc3c(=O)n(CC(O)C(F)(F)F)cnc23)cn1 (centres unmarked) [Compound 15]
24 | 100 to 500 | C[C@@H](CO)n1cnc2c(-c3ccccn3)nc(-c3ccc(C(F)(F)F)nc3)cc2c1=O [Compound 180, (S)-3-(1-hydroxypropan-2-yl)-8-(pyridin-2-yl)-6-(6-(trifluoromethyl)pyridin-3-yl)pyrido[3,4-d]pyrimidin-4(3H)-one]
25 | 100 to 500 | C[C@@H](CO)n1cnc2c(-c3cnsc3)nc(-c3cnsc3)cc2c1=O [Compound 56]
26 | 100 to 500 | C[C@@H](CO)n1cnc2c(C3=CCCCC3)nc(-c3ccc(C(F)(F)F)cn3)cc2c1=O [Compound 188, (S)-8-(cyclohex-1-en-1-yl)-3-(1-hydroxypropan-2-yl)-6-(5-(trifluoromethyl)pyridin-2-yl)pyrido[3,4-d]pyrimidin-4(3H)-one]
27 | < 100 | O=c1c2cc(-c3ccc(C(F)(F)F)nc3)nc(-c3cccnc3)c2ncn1[C@@H]1CCS(=O)(=O)C1 [Compound 107, (R)-3-(1,1-dioxidotetrahydrothiophen-3-yl)-8-(pyridin-3-yl)-6-(6-(trifluoromethyl)pyridin-3-yl)pyrido[3,4-d]pyrimidin-4(3H)-one]
28 | > 500 | C[C@@H](CO)n1cnc2c(-c3cccnc3)nc(C3CCCCC3)cc2c1=O [Compound 181, (S)-6-cyclohexyl-3-(1-hydroxypropan-2-yl)-8-(pyridin-3-yl)pyrido[3,4-d]pyrimidin-4(3H)-one]
29 | > 500 | C[C@@H](CO)n1cnc2c(-c3cccnc3)nc(N3CCCCC3)cc2c1=O [Compound 100]
30 | 100 to 500 | Cc1cc(C(F)(F)F)ncc1-c1cc2c(=O)n([C@@H](C)CO)cnc2c(-c2cccnc2)n1 [Compound 75]
31 | < 100 | O=c1c2cc(-c3ccc(C(F)(F)F)nc3)nc(-c3cccnc3)c2ncn1-c1cccnc1 [Compound 118, 3,8-di(pyridin-3-y1)-6-(6-(trifluoromethyl)pyridin-3-yl)pyrido[3,4-d]pyrimidin-4(3H)-one]

Row | SMILES | IC50 [nM]
32 | O=c1c2cc(-c3ccc(Cl)cc3)nc(-c3cccnc3)c2ncn1C1COCC1O (racemic) [Compound 29] | < 100
